Experimental data taken from patent US10183019B2, “Treatment of cancer with dihydropyrazino-pyrazines” (Signal Pharmaceuticals, LLC, priority 2013, dated 2019).

Experiments:
[1] = system: patient-derived GBM cell line 250; assay: Gliomasphere Formation Assay; type: cell-based; details: cell line 250, Recurrent, MGMT Unkn/Highly Expressed; 50% sphere formation vs DMSO control
Protocol: (§1) Primary patient-derived GBM tumor samples were dissociated and plated under culture conditions (i.e. DMEM/F12 medium supplemented with B27, 20 ng/mL bFGF, 50 ng/mL EGF, penicillin/streptomycin, L-glutamine and 5 ug/mL heparin) that produce gliomaspheres. Cells were plated at a density of 50 cells per well and allowed to acclimate overnight at 37° C. The Dihydropyrazino-Pyrazine Compounds were added to the cultures on Day 2 and replenished every 7 days. EGF and FGF were also replenished every 7 days. The cells were fixed with PFA/methanol when the smallest sphere was greater than 60 microns, typically 3-5 weeks. The cells were fixed with PFA/methanol and the next day assessed for cell number, using for example, SYTO-9 fluorescent DNA dye. Plates were read 48 h later with a laser scanning imager.

[2] = system: patient-derived GBM cell line 245; assay: Gliomasphere Formation Assay; type: cell-based; details: cell line 245, Recurrent; 50% sphere formation vs DMSO control
Protocol: as §1

[3] = system: patient-derived GBM cell line 296; assay: Gliomasphere Formation Assay; type: cell-based; details: cell line 296, Recurrent, MGMT status −; 50% sphere formation vs DMSO control
Protocol: as §1

[4] = system: patient-derived GBM cell line 350; assay: Gliomasphere Formation Assay; type: cell-based; details: cell line 350, Recurrent; 50% sphere formation vs DMSO control
Protocol: as §1

[5] = system: patient-derived GBM cell line 217; assay: Gliomasphere Formation Assay; type: cell-based; details: cell line 217, Primary; 50% sphere formation vs DMSO control
Protocol: as §1

[6] = system: patient-derived GBM cell line 206; assay: Gliomasphere Formation Assay; type: cell-based; details: cell line 206, Recurrent, MGMT Unkn/Highly Expressed; 50% sphere formation vs DMSO control
Protocol: as §1

[7] = system: patient-derived GBM cell line 282; assay: Gliomasphere Formation Assay; type: cell-based; details: cell line 282, Primary, MGMT ND; 50% sphere formation vs DMSO control
Protocol: as §1

[8] = system: patient-derived GBM cell line 309; assay: Gliomasphere Formation Assay; type: cell-based; details: cell line 309, Recurrent, MGMT ND; 50% sphere formation vs DMSO control
Protocol: as §1

[9] = system: HF2354 PDX (GBM neurosphere line HF2354); assay: Patient derived xenograft (PDX) survival study; type: in vivo, nude mouse; details: HF2354 PDX in nude mice; 5 mg/kg oral gavage once a day, Monday through Friday; monotherapy
Protocol: FIG. 2: Kaplan-Meier survival analysis for HF2354 PDX line (end of study). Treatment schedule for survival (Rx) and target hit (TH) are indicated.
Immunocompromised mice (nude mouse NCRNU-M, TACONIC) were implanted with a GBM neurosphere line derived from fresh surgical specimens. The cell line was characterized as following:
Patient derived xenograft (PDX) treatments started four weeks prior to when the first animal was expected to become symptomatic. […] Control animals were administered vehicle alone. Target hit cohorts were treated with one dose of each compound and sacrificed 2 and 24 h later (n=3/group). As necessary, fluids and supplemental food were administered to ameliorate weight loss.

[10] = system: patient-derived GBM cell line 301; assay: Gliomasphere Cell Number Assay; type: cell-based; details: cell line 301, Primary, MGMT status −; 50% cell numbers vs DMSO control, Day 2 to Day 9; read-out: IC50 Cell Survival
Protocol: (§2) Gliomasphere Cell Number Assay. Primary patient-derived GBM tumor samples were dissociated and plated under culture conditions that produce gliomaspheres (i.e. DMEM/F12 medium supplemented with B27, 20 ng/mL bFGF, 50 ng/mL EGF, penicillin/streptomycin, L-glutamine and 5 ug/mL heparin). Cells were plated at a density of 5000 cells/well and allowed to acclimate overnight at 37° C. The Dihydropyrazino-Pyrazine Compounds were added to the cultures on Day 2 and cells were kept in culture until Day 9. On Day 9, the cells were fixed with PFA/methanol and the next day assessed for cell number, using for example, SYTO-9 fluorescent DNA dye. Plates were read 48 h later with a laser scanning imager.

[11] = system: patient-derived GBM cell line 350; assay: Gliomasphere Cell Number Assay; type: cell-based; details: cell line 350, Recurrent; 50% cell numbers vs DMSO control, Day 2 to Day 9; read-out: IC50 Cell Survival
Protocol: as §2

[12] = system: patient-derived GBM cell line 254; assay: Gliomasphere Cell Number Assay; type: cell-based; details: cell line 254, Recurrent; 50% cell numbers vs DMSO control, Day 2 to Day 9; read-out: IC50 Cell Survival
Protocol: as §2

[13] = system: patient-derived GBM cell line 217; assay: Sphere-Reformation Assay; type: cell-based; details: 7 day pre-treatment, various doses
Protocol: (§3) Tumorsphere lines 206, 217, 254 and 282 in FIGS. 1A, 1B, 1C and 1D, respectively, were dissociated and plated as single cells at a density of 50,000 cells/ml of tumorsphere media in a total of 10 mL per T-25 cell culture flask and 5 flasks per cell line. […] 60 wells were plated from each flask of cells. Tumorspheres were allowed to grow until they achieved at least 60 microns in diameter before they were counted. The percentage of tumorsphere formation was calculated as the number of tumorspheres counted divided by the number of cells seeded times the plating efficiency of the control.
(§4) Patient-derived GBM cell lines cultured under tumorsphere culture conditions maintain a highly heterogenous population of cells, including both sphere-initiating cells, as well as more committed progenitor cells with limited proliferative capabilities. To determine if Compound 1 specifically targets the sphere-initiating cell population, we performed a sphere re-formation assay after Compound 1 pre-treatment. […] Compound 1 may target both the sphere-initiating cells as well as the more committed progenitor cells thus the percentage of sphere-initiating cells in the culture remains constant after Compound 1 treatment.

[14] = system: patient-derived GBM cell line 206; assay: Sphere-Reformation Assay; type: cell-based; details: 7 day pre-treatment, various doses
Protocol: as §3, §4

[15] = system: patient-derived GBM cell line 282; assay: Sphere-Reformation Assay; type: cell-based; details: 7 day pre-treatment, various doses (100 nM and 500 nM not tested)
Protocol: as §3, §4

[16] = system: patient-derived GBM cell line 254; assay: Sphere-Reformation Assay; type: cell-based
Protocol: as §3, §4

Structure (SMILES): CCN1C(=O)CNc2ncc(-c3ccc(-c4nc[nH]n4)nc3C)nc21 [Compound 1, 1-ethyl-7-(2-methyl-6-(1H-1,2,4-triazol-3-yl)pyridin-3-yl)-3,4-dihydropyrazino[2,3-b]pyrazin-2(1H)-one]
- IC50 [1]: 39.6 nM
- IC50 [2]: 22.6 nM
- IC50 [3]: 544 nM
- IC50 [4]: 39.3 nM
- IC50 [5]: 42.1 nM
- IC50 [6]: 142 nM
- IC50 [7]: 25.8 nM
- IC50 [8]: 159 nM
- survival (Kaplan-Meier) [9]: significantly increased survival
- IC50 [10]: 313 nM
- IC50 [11]: 99.6 nM
- IC50 [12]: 99.6 nM
- number of spheres formed by cells that survived pre-treatment vs control untreated cells [13]: not significantly different
- number of spheres formed by cells that survived pre-treatment vs control untreated cells [14]: not significantly different
- number of spheres formed by cells that survived pre-treatment vs control untreated cells [15]: not significantly different
- tumorsphere re-formation after pre-treatment ([16]; 500 nM, 7 days): No tumorspheres re-formed
- number of spheres formed by cells that survived pre-treatment vs control untreated cells ([16]; 7 day pre-treatment, various doses): not significantly different
